According to PubChem BioAssay AID1918994 (Molecular Pharmacology Branch, DTP, NCI, 2023):
pIC50: −log10 of the molar value.

Test system: 292921-168-R-J2-PDC complex spheroid growth
Assay: Anticancer human tumor 292921-168-R-J2-PDC patient-derived pancreatic carcinoma cell line growth inhibition [AhR]
Conditions: for pIC50: curve of first compound; for viability, T/C: stronger effect = lower value
Source text: Multicellular complex tumor spheroid response to aryl hydrocarbon receptor antagonists in combination with a variety of drugs and investigational agents in selected tumor cell lines
The current study was undertaken to assess response to aryl hydrocarbon receptor antagonists in combination with standard-of-care drugs and investigational agents in solid tumor complex spheroid models. Complex spheroids include a stromal component modeled by human endothelial cells (HUVEC) and fibroblasts modeled by human mesenchymal stem cells (MSCs). The concentration ranges selected for each drug and investigational agent were based upon clinically achievable concentrations if the clinical Cmax of the agent was known.
Compounds. The drugs and investigational agents: BAY 2416964 (NSC825713), GNF351 (NSC835774), CH-223191 (NSC835775), CPI-455 (NSC825282), aza-TdCyd (NSC777586), decitabine (NSC127716), belinostat (NSC758774), entinostat (NSC756642), pevonedistat (NSC761192), tazemetostat (NSC777109), talazoparib (NSC765396), olaparib (NSC753686), selinexor (NSC780203), nedisertib (M3814, NSC802822), bortezomib (NSC756655), venetoclax (NSC766270), doxorubicin (NSC123127), elimusertib (BAY189344, NSC800525), ceralasertib (AZD6738, NSC777638), TAK-243 (NSC785004), alisertib (NSC759677), etoposide (NSC141540), topotecan (NSC609699), eribulin (NSC707389), gemcitabine (NSC613327), carboplatin (NSC241240), cisplatin (NSC119875), and SN-38 (NSC673596) were obtained from the National Cancer Institute (NCI) Developmental Therapeutics Program Chemical Repository (32). The FDA-approved anticancer drug set is available from the Developmental Therapeutics Program at https://dtp.cancer.gov/organization/dscb/obtaining/available plates.htm. […] The stock solutions were prepared in dimethyl sulfoxide (DMSO, Sigma-Aldrich, St. Louis, MO, cat. D2650), except for the platinum compounds which were prepared in saline (Quality Biological, Gaithersburg, MD, cat. 114-055-101), at 800-fold the tested concentration and stored at -70 degrees C prior to their use. All drugs and investigational agents were tested over a range starting from a high concentration at or near the clinical Cmax and decreasing in half-log increments. If the clinical Cmax for an agent had not been determined, the highest concentration tested was 10 microM (Table 1).
Cell Culture. All cells were maintained in an incubator at 37 degrees C and 5% CO2 with 95% humidity. The PDC lines were cultured according to standard operating procedures established by the NCI PDMR (https://pdmr.cancer.gov). Briefly, all PDCs were thawed and cultured in Matrigel-coated flasks prepared with a working solution of 1X Ham's F-12 nutrient mix, without supplementation (Invitrogen, Waltham, MA, cat. 11765054), 100 U/mL penicillin-streptomycin (Invitrogen, cat. 15140122), and 2.5% Matrigel (Corning Inc., Corning, NY, cat. 354248) for the first three passages. All PDCs were cultured in complete DMEM/F-12 media containing advanced DMEM/F-12 (Invitrogen, cat. 12634028), 4.9% defined fetal bovine serum, heat inactivated (HyClone Laboratories Inc., Logan, UT, cat. SH30070.03HI), 389 ng/mL hydrocortisone (Sigma-Aldrich, cat. H4001), 9.7 ng/mL human EGF recombinant protein (Invitrogen, cat. PHG0313), 23.4 microg/mL adenine (Sigma-Aldrich, cat. A2786), 97.3 U/mL penicillin-streptomycin (Invitrogen, cat. 15140122), 1.9 mM L-glutamine (Invitrogen, cat. 25030081), and 9.7 microM Y-27632 dihydrochloride (Tocris Bioscience, Bristol, United Kingdom, cat. 1254). The PDCs were cultured in complete DMEM/F12 media without 10 microM Y-27632 dihydrochloride for at least two passages prior to the screen. The established cell lines NCI-H1341 and […] were cultured in DMEM/F-12, HEPES (Invitrogen, cat. 11330032), 5% defined fetal bovine serum (HyClone Laboratories Inc., cat. SH30070.03), ITS premix universal culture supplement [insulin (5 microg/mL), transferrin (5 microg/mL), and selenious acid (5 ng/mL)] […]

[1] = second compound 0.1 µM, first compound 0.0316 µM
[2] = second compound 0.1 µM, first compound 0.1 µM
[3] = second compound 0.1 µM, first compound 0.316 µM
[4] = second compound 0.1 µM, first compound 1 µM
[5] = second compound 0.1 µM, first compound 3.16 µM
[6] = second compound 0.1 µM, first compound 10 µM
[7] = second compound 0.316 µM, first compound 0.0316 µM
[8] = second compound 0.316 µM, first compound 0.1 µM
[9] = second compound 0.316 µM, first compound 0.316 µM
[10] = second compound 0.316 µM, first compound 1 µM
[11] = second compound 0.316 µM, first compound 3.16 µM
[12] = second compound 0.316 µM, first compound 10 µM
[13] = second compound 1 µM, first compound 0.0316 µM
[14] = second compound 1 µM, first compound 0.1 µM
[15] = second compound 1 µM, first compound 0.316 µM
[16] = second compound 1 µM, first compound 1 µM
[17] = second compound 1 µM, first compound 3.16 µM
[18] = second compound 1 µM, first compound 10 µM
[19] = second compound 3.16 µM, first compound 0.0316 µM
[20] = second compound 3.16 µM, first compound 0.1 µM
[21] = second compound 3.16 µM, first compound 0.316 µM
[22] = second compound 3.16 µM, first compound 1 µM
[23] = second compound 3.16 µM, first compound 3.16 µM
[24] = second compound 3.16 µM, first compound 10 µM
[25] = second compound 10 µM, first compound 0.0316 µM
[26] = second compound 10 µM, first compound 0.1 µM
[27] = second compound 10 µM, first compound 0.316 µM
[28] = second compound 10 µM, first compound 1 µM
[29] = second compound 10 µM, first compound 3.16 µM
[30] = second compound 10 µM, first compound 10 µM
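Further: spheroids exposed to compounds for seven days after three days of growth.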

CC(C)CC(NC(=O)C(Cc1ccccc1)NC(=O)c1cnccn1)B(O)O (stereo not given) + CC(CO)NC(=O)c1cc(-c2ccc(Cl)cc2)nn(-c2cnn(C)c2)c1=O
pIC50 (second compound 0.1 µM): 8.21 | pIC50 (second compound 0.316 µM): 8.27 | pIC50 (second compound 1 µM): 8.22 | pIC50 (second compound 3.16 µM): 8.28 | pIC50 (second compound 10 µM): 8.35 | viability, T/C (second compound 0.1 µM, first compound 0.000949 µM): 105% | viability, T/C (second compound 0.1 µM, first compound 0.003 µM): 107% | viability, T/C (second compound 0.1 µM, first compound 0.00949 µM): 15.2% | viability, T/C (second compound 0.1 µM, first compound 0.03 µM): 2.8% | viability, T/C (second compound 0.1 µM, first compound 0.0949 µM): 1.2% | viability, T/C (second compound 0.1 µM, first compound 0.3 µM): 0.49% | viability, T/C (second compound 0.316 µM, first compound 0.000949 µM): 109% | viability, T/C (second compound 0.316 µM, first compound 0.003 µM): 90.4% | viability, T/C (second compound 0.316 µM, first compound 0.00949 µM): 11.8% | viability, T/C (second compound 0.316 µM, first compound 0.03 µM): 1.8% | viability, T/C (second compound 0.316 µM, first compound 0.0949 µM): 0.5% | viability, T/C (second compound 0.316 µM, first compound 0.3 µM): 0.59% | viability, T/C (second compound 1 µM, first compound 0.000949 µM): 101% | viability, T/C (second compound 1 µM, first compound 0.003 µM): 102% | viability, T/C (second compound 1 µM, first compound 0.00949 µM): 15.8% | viability, T/C (second compound 1 µM, first compound 0.03 µM): 2.98% | viability, T/C (second compound 1 µM, first compound 0.0949 µM): 1.25% | viability, T/C (second compound 1 µM, first compound 0.3 µM): 1.42% | viability, T/C (second compound 3.16 µM, first compound 0.000949 µM): 85.8% | viability, T/C (second compound 3.16 µM, first compound 0.003 µM): 85.6% | viability, T/C (second compound 3.16 µM, first compound 0.00949 µM): 13.2% | viability, T/C (second compound 3.16 µM, first compound 0.03 µM): 2.3% | viability, T/C (second compound 3.16 µM, first compound 0.0949 µM): 2.01% | viability, T/C (second compound 3.16 µM, first compound 0.3 µM): 1.89% | viability, T/C (second compound 10 µM, first compound 0.000949 µM): 77.6% | viability, T/C (second compound 10 µM, first compound 0.003 µM): 70% | viability, T/C (second compound 10 µM, first compound 0.00949 µM): 11% | viability, T/C (second compound 10 µM, first compound 0.03 µM): 1.4% | viability, T/C (second compound 10 µM, first compound 0.0949 µM): 2.28% | viability, T/C (second compound 10 µM, first compound 0.3 µM): 2.01%

COc1cc(Nc2ncc3c(n2)-c2ccc(Cl)cc2C(c2c(F)cccc2OC)=NC3)ccc1C(=O)O + CC(CO)NC(=O)c1cc(-c2ccc(Cl)cc2)nn(-c2cnn(C)c2)c1=O
pIC50 (second compound 0.1 µM): > 7.50 | pIC50 (second compound 0.316 µM): > 7.50 | pIC50 (second compound 1 µM): > 7.50 | pIC50 (second compound 3.16 µM): > 7.50 | pIC50 (second compound 10 µM): > 7.50 | viability, T/C [1]: 51% | viability, T/C [2]: 41.9% | viability, T/C [3]: 44.8% | viability, T/C [4]: 40.1% | viability, T/C [5]: 40.7% | viability, T/C [6]: 31.4% | viability, T/C [7]: 50.8% | viability, T/C [8]: 40.1% | viability, T/C [9]: 44.1% | viability, T/C [10]: 40.9% | viability, T/C [11]: 34.3% | viability, T/C [12]: 33.3% | viability, T/C [13]: 52.5% | viability, T/C [14]: 40.3% | viability, T/C [15]: 39.3% | viability, T/C [16]: 47.9% | viability, T/C [17]: 37.3% | viability, T/C [18]: 30% | viability, T/C [19]: 45.3% | viability, T/C [20]: 36.2% | viability, T/C [21]: 44.3% | viability, T/C [22]: 42% | viability, T/C [23]: 36.8% | viability, T/C [24]: 28.4% | viability, T/C [25]: 38.5% | viability, T/C [26]: 33.4% | viability, T/C [27]: 37.3% | viability, T/C [28]: 38.8% | viability, T/C [29]: 32.6% | viability, T/C [30]: 26.4%

O=C(C=Cc1cccc(S(=O)(=O)Nc2ccccc2)c1)NO + CC(CO)NC(=O)c1cc(-c2ccc(Cl)cc2)nn(-c2cnn(C)c2)c1=O
pIC50 (second compound 0.1 µM): 6.55 | pIC50 (second compound 0.316 µM): 6.49 | pIC50 (second compound 1 µM): 6.58 | pIC50 (second compound 3.16 µM): 6.84 | pIC50 (second compound 10 µM): > 7.50 | viability, T/C [1]: 72.2% | viability, T/C [2]: 56.7% | viability, T/C [3]: 48.6% | viability, T/C [4]: 35.1% | viability, T/C [5]: 28.5% | viability, T/C [6]: 1.96% | viability, T/C [7]: 74% | viability, T/C [8]: 63.3% | viability, T/C [9]: 46.1% | viability, T/C [10]: 36.3% | viability, T/C [11]: 30.7% | viability, T/C [12]: 2.62% | viability, T/C [13]: 67.8% | viability, T/C [14]: 57.3% | viability, T/C [15]: 46.5% | viability, T/C [16]: 35.4% | viability, T/C [17]: 28.7% | viability, T/C [18]: 3.31% | viability, T/C [19]: 64% | viability, T/C [20]: 52% | viability, T/C [21]: 41.9% | viability, T/C [22]: 31% | viability, T/C [23]: 22.5% | viability, T/C [24]: 2.61% | viability, T/C [25]: 50.4% | viability, T/C [26]: 43.6% | viability, T/C [27]: 39.1% | viability, T/C [28]: 29.1% | viability, T/C [29]: 20% | viability, T/C [30]: 1.62%
